Test results: the supplement of paper PMC5579334

What was measured:
[1] = system: HS-Sch-2; assay: % inhibition of CellTiter-Glo viability at highest tested concentration (72 h), relative to DMSO and benzethonium chloride controls; higher = more inhibition
Summary of the method: (§1)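 Viability of MPNST cell lines and primary human Schwann cells was read as CellTiter-Glo ATP luminescence after 72 h at 37 °C, 5% CO2, in 384-well plates seeded with 750–1000 cells per well. Each compound had been preprinted at five concentrations in 10-fold steps. Signals were scaled between vehicle and positive-control wells, duplicates averaged where present, and fitted with four-parameter logistic curves. Drug sensitivity score and relative IC50 (censored at the top concentration) come from those fits, and percent inhibition is taken at the top concentration.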

[2] = system: HS-PSS; assay: as above
Summary of the method: as §1

[3] = system: YST-1; assay: as above
Summary of the method: as §1

[4] = system: HS-Sch-2; assay: drug sensitivity score (DSS, CellTiter-Glo viability, 72 h) (DSS (dimensionless)); higher = more sensitive; extreme values may be limits of the assay
Summary of the method: as §1

[5] = system: HS-PSS; assay: as above
Summary of the method: as §1

[6] = system: YST-1; assay: as above
Summary of the method: as §1

[7] = system: HS-PSS; assay: drug sensitivity score (DSS, CellTox-Green cytotoxicity, 72 h) (DSS (dimensionless)); higher = more cytotoxic; extreme values may be limits of the assay
Summary of the method: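 MPNST cell lines and primary human Schwann cells were grown for 72 h at 37 °C in 384-well plates containing five 10-fold compound dilutions. CellTox-Green, added before seeding at a final 1:1000 dilution, gave fluorescence from DNA released by disrupted cells, and signals were scaled to vehicle and positive-control wells. Curves were fitted with a four-parameter logistic model. Drug sensitivity score and relative IC50 come from these fits, with IC50 censored at the top concentration.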

Row | Structure (SMILES) | % inhibition [1] | % inhibition [2] | % inhibition [3] | drug sensitivity score [4] | drug sensitivity score [5] | drug sensitivity score [6] | drug sensitivity score [7]
1 | Cc1ccc2nc(CN(CCN(Cc3nc4ccc(C)cc4[nH]3)Cc3nc4ccc(C)cc4[nH]3)Cc3nc4ccc(C)cc4[nH]3)[nH]c2c1 (max concentration tested 50000 nM) | 80.3% | 74.3% | 67.5% | 7.29 | 7.02 | 6.33 | 0.03
2 | Cn1cc(-c2ccc3nnc(Sc4ccc5ncccc5c4)n3n2)cn1 [SGX-523] (max concentration tested 5000 nM) | 5.27% | 2.63% | -2.5% | 0 | 0 | 0 | 0
3 | COC(=O)c1ccc2c(c1)[nH]c1ncnc(NCCCN3CCCCC3)c12 [UM729] (max concentration tested 10000 nM) | 29% | 13.2% | 35.4% | 1.25 | 0.05 | 3.85 | 0
4 | Cc1nc(=O)c2cc(CN(C)c3ccc(C(=O)N[C@@H](CCC(=O)O)C(=O)O)s3)ccc2[nH]1 [Raltitrexed] (max concentration tested 1000 nM) | 71.5% | 14.7% | 29.9% | 15.1 | 3.16 | 6.69 | 0
5 | O=C(NC1CCNCC1)c1n[nH]cc1NC(=O)c1c(Cl)cccc1Cl [AT7519] (max concentration tested 10000 nM) | 99.7% | 73.5% | 98.7% | 17.6 | 15.3 | 26 | 1.85
6 | COc1ccc(-c2ccc3ncc4c(c3c2)n(-c2ccc(N3CCNCC3)c(C(F)(F)F)c2)c(=O)n4C)cn1 [NVP-BGT226] (max concentration tested 1000 nM) | 98.2% | 99.1% | 99.5% | 21.4 | 15.3 | 19.7 | 3.94
7 | Oc1ncc(N(CCCl)CCCl)c(O)n1 [Uramustine] (max concentration tested 10000 nM) | 3% | -0.55% | 1.38% | 0 | 0 | 0 | 0
8 | O=C(Nc1nc2cccc(-c3ccc(CN4CCS(=O)(=O)CC4)cc3)n2n1)C1CC1 [Filgotinib] (max concentration tested 10000 nM) | 35.7% | 14.3% | 45.2% | 2.01 | 0.09 | 1.97 | 0
9 | Cc1nc(-c2cn3c(n2)-c2ccc(-c4cnn(C(C)(C)C(N)=O)c4)cc2OCC3)n(C(C)C)n1 [Taselisib] (max concentration tested 1000 nM) | 18.1% | 26.4% | 66.6% | 0.87 | 0.7 | 11.9 | 0
10 | CC(C)(C)C[C@@H]1N[C@@H](C(=O)N[C@H]2CC[C@H](O)CC2)[C@H](c2cccc(Cl)c2F)[C@]12C(=O)Nc1cc(Cl)ccc12 (max concentration tested 10000 nM) | 19.6% | 36.2% | 100% | 0.86 | 1.67 | 21.9 | 0
11 | Cc1ccc(NC(=O)c2ccc(CN3CC[C@H](N(C)C)C3)c(C(F)(F)F)c2)cc1Nc1nccc(-c2cncnc2)n1 [Bafetinib] (max concentration tested 1000 nM) | 16.8% | -10.6% | 28.5% | 0.33 | 0 | 1.49 | 0
12 | NC(=O)Nc1sc(-c2ccc(F)cc2)cc1C(N)=O [TPCA-1] (max concentration tested 25000 nM) | 17.7% | 41% | 46.1% | 1.36 | 3.59 | 3.91 | 0
13 | COCC1(CO)C(=O)C2CCN1CC2 (stereo unspecified) [APR-246] (max concentration tested 10000 nM) | 5% | 13.1% | -11% | 0 | 0.39 | 0 | 0
14 | CCN(CC)CCCC(C)Nc1ccnc2cc(Cl)ccc12 (stereo unspecified) [Chloroquine] (max concentration tested 100000 nM) | 102% | 102% | 102% | 17.1 | 18.7 | 9.66 | 9.74
15 | COc1cc(C(=O)O)ccc1NC(=O)[C@@H]1N[C@@H](CC(C)(C)C)[C@](C#N)(c2ccc(Cl)cc2F)[C@H]1c1cccc(Cl)c1F [Idasanutlin] (max concentration tested 10000 nM) | -12.1% | 26.1% | 98.6% | 0 | 5.43 | 25.1 | 0
16 | Clc1ccccc1C(c1ccccc1)(c1ccccc1)n1cccn1 [TRAM-34] (max concentration tested 1000 nM) | 15.5% | 13.4% | 3.42% | 0.38 | 0.59 | 0 | 0
17 | CO[C@H]1C(=O)[C@]2(C)[C@@H](OC)C[C@H]3OC[C@@]3(OC(C)=O)[C@H]2[C@H](OC(=O)c2ccccc2)[C@]2(O)C[C@H](OC(=O)[C@H](O)[C@@H](NC(=O)OC(C)(C)C)c3ccccc3)C(C)=C1C2(C)C [Cabazitaxel] (max concentration tested 1000 nM) | 93.5% | 41.5% | 74% | 33.6 | 1.5 | 30.7 | 0.1
18 | C[C@@H](Oc1cc(-n2cnc3ccc(CN4CCN(C)CC4)cc32)sc1C(N)=O)c1ccccc1C(F)(F)F (max concentration tested 10000 nM) | 99.8% | 101% | 86.8% | 34.6 | 14.6 | 27.3 | 5.06
